Consider 10 compounds from ChEMBL document CHEMBL3431459, “Roche carnitine palmitoyltransferase modulator screening data (supplementary data associated with the publication CHEMBL2216752)”.

A short description of series [1]: SUPPLEMENTARY: PAMPA permeability assay. In kind it is physicochemical. The settings on record: read-out: Permeability.
For series [2], the target named is T1, Carnitine O-palmitoyltransferase 1, muscle isoform (Homo sapiens, UniProt Q92523).
T1 sequence (Q92523 whole entry): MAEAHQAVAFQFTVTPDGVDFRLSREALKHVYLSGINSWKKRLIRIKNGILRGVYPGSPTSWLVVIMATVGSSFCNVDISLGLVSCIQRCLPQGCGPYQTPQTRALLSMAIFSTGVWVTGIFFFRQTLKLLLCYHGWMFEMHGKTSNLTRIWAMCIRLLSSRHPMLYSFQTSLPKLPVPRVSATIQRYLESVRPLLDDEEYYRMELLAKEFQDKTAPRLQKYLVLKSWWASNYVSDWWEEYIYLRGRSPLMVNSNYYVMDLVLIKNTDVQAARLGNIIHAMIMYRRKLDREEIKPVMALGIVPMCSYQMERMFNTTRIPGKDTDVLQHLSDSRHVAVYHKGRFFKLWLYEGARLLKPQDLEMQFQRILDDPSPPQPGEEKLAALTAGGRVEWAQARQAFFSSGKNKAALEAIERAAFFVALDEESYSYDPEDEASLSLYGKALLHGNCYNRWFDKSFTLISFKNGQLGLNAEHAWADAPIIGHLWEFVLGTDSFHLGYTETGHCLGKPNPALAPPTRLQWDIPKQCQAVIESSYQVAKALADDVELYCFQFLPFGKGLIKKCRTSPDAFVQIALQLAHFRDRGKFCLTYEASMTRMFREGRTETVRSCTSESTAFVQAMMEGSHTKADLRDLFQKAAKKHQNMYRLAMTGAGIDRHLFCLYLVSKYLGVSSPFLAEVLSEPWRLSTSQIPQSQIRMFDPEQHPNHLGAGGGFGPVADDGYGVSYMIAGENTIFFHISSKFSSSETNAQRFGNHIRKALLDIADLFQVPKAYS
The experiment in a line: SUPPLEMENTARY: Inhibition of Carnitine palmitoyltransferase 1, muscle isoform. Set-up: species or system Muscle tissue.

Series [3] addresses T2, Carnitine O-palmitoyltransferase 2, mitochondrial (Rattus norvegicus, UniProt P18886).
T2 sequence (P18886 whole entry): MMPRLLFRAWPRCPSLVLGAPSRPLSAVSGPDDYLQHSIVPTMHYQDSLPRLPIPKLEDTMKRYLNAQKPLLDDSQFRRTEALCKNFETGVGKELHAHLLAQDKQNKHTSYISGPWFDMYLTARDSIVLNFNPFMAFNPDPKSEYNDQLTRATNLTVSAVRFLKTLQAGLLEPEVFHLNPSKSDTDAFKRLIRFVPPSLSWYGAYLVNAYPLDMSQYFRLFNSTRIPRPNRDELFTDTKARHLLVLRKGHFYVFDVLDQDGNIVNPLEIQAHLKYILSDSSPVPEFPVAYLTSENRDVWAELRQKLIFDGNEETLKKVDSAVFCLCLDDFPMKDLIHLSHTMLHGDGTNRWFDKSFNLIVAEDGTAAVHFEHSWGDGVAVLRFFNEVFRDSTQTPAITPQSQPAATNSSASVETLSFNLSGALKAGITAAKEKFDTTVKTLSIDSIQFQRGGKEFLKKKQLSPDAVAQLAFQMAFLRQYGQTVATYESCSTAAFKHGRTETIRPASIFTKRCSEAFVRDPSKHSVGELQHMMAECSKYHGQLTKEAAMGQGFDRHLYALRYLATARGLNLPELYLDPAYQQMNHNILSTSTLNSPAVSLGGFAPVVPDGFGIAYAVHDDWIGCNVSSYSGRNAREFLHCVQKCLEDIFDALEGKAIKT
The experiment in a line: (§1) SUPPLEMENTARY: Inhibition of Carnitine palmitoyltransferase 2.

The target of series [4] is T3, Carnitine O-palmitoyltransferase 2, mitochondrial (Homo sapiens, UniProt P23786).
T3 sequence (P23786 whole entry): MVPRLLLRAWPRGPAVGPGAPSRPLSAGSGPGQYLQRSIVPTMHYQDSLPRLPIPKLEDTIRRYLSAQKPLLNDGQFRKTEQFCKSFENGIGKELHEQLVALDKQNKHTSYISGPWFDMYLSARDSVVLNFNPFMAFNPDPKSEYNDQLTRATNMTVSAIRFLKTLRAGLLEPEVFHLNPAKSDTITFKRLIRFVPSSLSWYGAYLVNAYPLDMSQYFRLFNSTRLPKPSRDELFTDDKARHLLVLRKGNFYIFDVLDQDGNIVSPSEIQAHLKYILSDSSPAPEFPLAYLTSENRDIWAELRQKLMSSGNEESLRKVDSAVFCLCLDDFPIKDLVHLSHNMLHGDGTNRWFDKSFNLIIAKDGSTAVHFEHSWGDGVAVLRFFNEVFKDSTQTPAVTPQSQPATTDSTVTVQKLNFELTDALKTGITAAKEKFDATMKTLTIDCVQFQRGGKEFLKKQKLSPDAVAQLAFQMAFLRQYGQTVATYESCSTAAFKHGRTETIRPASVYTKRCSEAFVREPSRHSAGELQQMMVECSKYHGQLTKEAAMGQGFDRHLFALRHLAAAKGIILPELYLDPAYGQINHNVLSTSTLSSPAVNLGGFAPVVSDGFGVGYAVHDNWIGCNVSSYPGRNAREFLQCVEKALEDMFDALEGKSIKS
Described as §1.

Series [5] can be described thus: SUPPLEMENTARY: Lipophilicity (log D) Determination by high-throughput shake-flask. Format: physicochemical. The settings on record: octanol/water.
For series [6], the target named is T4, Carnitine O-palmitoyltransferase 1, liver isoform (Homo sapiens, UniProt P50416).
T4 sequence (P50416 whole entry): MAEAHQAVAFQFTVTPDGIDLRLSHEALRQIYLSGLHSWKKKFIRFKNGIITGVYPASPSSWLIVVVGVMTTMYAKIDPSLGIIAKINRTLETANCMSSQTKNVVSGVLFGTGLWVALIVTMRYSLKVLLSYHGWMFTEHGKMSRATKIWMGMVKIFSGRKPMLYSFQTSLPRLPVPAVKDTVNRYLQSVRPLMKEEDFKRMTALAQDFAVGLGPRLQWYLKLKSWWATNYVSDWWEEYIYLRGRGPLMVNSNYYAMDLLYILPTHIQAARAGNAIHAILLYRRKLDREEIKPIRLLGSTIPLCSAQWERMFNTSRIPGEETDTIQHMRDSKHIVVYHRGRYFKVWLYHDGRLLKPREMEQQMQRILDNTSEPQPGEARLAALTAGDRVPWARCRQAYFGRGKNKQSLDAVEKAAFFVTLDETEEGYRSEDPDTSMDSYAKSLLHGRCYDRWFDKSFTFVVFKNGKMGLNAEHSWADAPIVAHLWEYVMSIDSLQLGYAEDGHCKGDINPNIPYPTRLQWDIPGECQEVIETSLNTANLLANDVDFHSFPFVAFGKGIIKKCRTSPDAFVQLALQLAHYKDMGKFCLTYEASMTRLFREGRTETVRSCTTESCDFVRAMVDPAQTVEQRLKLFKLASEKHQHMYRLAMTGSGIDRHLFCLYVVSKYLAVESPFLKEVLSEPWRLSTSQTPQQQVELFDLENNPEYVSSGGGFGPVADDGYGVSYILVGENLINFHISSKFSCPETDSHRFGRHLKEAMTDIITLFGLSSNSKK
In words: (§2) SUPPLEMENTARY: Inhibition of Carnitine palmitoyltransferase 1, liver isoform.

For series [7], the target named is T5, Carnitine O-palmitoyltransferase 1, liver isoform (Rattus norvegicus, UniProt P32198).
T5 sequence (P32198 whole entry): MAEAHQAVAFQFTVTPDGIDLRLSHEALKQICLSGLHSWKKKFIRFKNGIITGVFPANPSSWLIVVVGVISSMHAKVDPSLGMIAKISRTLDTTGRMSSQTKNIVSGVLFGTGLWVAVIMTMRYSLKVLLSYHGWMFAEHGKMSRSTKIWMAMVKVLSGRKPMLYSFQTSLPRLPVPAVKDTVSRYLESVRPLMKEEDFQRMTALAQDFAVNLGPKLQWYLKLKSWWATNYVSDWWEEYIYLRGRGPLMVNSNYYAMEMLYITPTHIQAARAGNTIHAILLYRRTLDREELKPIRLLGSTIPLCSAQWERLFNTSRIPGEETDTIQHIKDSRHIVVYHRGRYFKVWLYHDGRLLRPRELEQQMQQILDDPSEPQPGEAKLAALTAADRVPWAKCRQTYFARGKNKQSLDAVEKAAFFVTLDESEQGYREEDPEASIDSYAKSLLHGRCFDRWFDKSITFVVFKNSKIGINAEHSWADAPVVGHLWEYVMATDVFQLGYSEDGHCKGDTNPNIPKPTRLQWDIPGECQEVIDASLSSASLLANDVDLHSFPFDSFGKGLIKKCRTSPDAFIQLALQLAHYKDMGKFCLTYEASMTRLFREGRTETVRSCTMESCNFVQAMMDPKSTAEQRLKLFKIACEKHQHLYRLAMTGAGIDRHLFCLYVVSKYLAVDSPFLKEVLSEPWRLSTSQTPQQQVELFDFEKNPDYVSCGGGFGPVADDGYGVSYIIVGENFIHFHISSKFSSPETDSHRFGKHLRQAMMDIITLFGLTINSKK
Described as §2.

Series [8] in a line: SUPPLEMENTARY: Lyophilisation Solubility Assay (LYSA). In kind it is physicochemical. The settings on record: read-out: Kinetic_solubility.

pIC50: −log10 of the molar value. Values after ≈ are worked out from the molar mass of the structure shown.

The term pIC50 denotes the IC50 on a negative log10 scale, so that one unit is a factor of ten. A higher pIC50 goes with a small IC50. As usually defined, the logD is the decadic logarithm of the distribution of all forms, ionised or not, between an organic phase and buffer at a given pH. A higher logD goes with higher lipophilicity.

For `O=C(COc1ccccc1)N1CCCC[C@@H]1c1noc(-c2ccc3cnccc3n2)n1`, in series [1], the Papp is 4.52 ×10⁻⁶ cm/s. The pIC50 was less than 4.00 in series [2]; less than 4.00 in series [3]; 4.76 in series [4]; 6.73 in series [6]; 6.52 in series [7]. In addition, the logD in series [5] was found to be 2.52. Besides, the solubility kinetic in series [8] was 82 µg/mL (≈ 197 µM).
`O=C(COc1ccccc1)N1CCCC[C@@H]1c1noc(-c2cnnc3ccccc23)n1`: in series [1], the Papp worked out at 3.59 ×10⁻⁶ cm/s. Further, the pIC50 in series [2] was less than 4.00; in series [3], 4.05; in series [4], 4.73; in series [6], 7.31; in series [7], 6.87. This compound also displayed a logD in series [5] of 2.9. Besides, the solubility kinetic in series [8] amounted to 18 µg/mL (≈ 43.3 µM).
On to `O=C(COc1ccccc1)N1CCCC[C@@H]1c1noc(-c2ccc3[nH]nnc3c2)n1`, for which the Papp in series [1] worked out at 2.14 ×10⁻⁶ cm/s. The pIC50 in series [2] is less than 4.00; in series [3], less than 4.00; in series [4], less than 4.00; in series [6] it was 7.10; in series [7], 6.04. In series [5], this compound gave a logD of 2.22. Besides, in series [8], the solubility kinetic was found to be 46.5 µg/mL (≈ 115 µM).
Turning to `COc1ccc(Cl)cc1S(=O)(=O)N1CCOc2ncc(C(=O)Nc3ccccc3)cc21`, the Papp in series [1] amounted to 4.38 ×10⁻⁶ cm/s. Besides, the pIC50 is less than 4.00 in series [2]; less than 4.00 in series [3]; less than 4.00 in series [4]; 6.57 in series [6]; 6.62 in series [7]. The same compound gave a pH-dependent lipophilicity (logD) in series [5] of 3.31. Further, in series [8], the solubility kinetic is 4 µg/mL (≈ 8.7 µM).
For the compound `COc1ccc(Cl)cc1S(=O)(=O)N1C[C@H](C)c2ccc(C(=O)Nc3ccc(C(=O)O)cc3)cc21`, the Papp in series [1] is 2.83 ×10⁻⁶ cm/s. Moreover, the pIC50 was 5.85 in series [2]; 5.67 in series [3]; 6.16 in series [4]; 7.12 in series [6]; 7.10 in series [7]. This compound showed a logD in series [5] of 3.01. Also, in series [8], the solubility kinetic was 3 µg/mL (≈ 5.99 µM).
With `COc1ccc(Cl)cc1S(=O)(=O)N1C[C@@H](C)c2ccc(C(=O)Nc3ccc(C(=O)O)cc3)cc21`, in series [1], the Papp was 2.86 ×10⁻⁶ cm/s. Besides, the pIC50 is 5.17 in series [2]; 5.85 in series [3]; 6.34 in series [4]; 7.44 in series [6]; 7.54 in series [7]. This compound also yielded a logD in series [5] of 2.98. Moreover, the solubility kinetic in series [8] was 6 µg/mL (≈ 12 µM).
As to `O=C(COc1ccccc1)N1CCOC[C@@H]1c1nc(-c2ccc3[nH]cnc3c2)no1`, in series [1], the Papp was found to be 2.8 ×10⁻⁶ cm/s. The pIC50 is less than 4.00 in series [2]; less than 4.00 in series [3]; less than 4.00 in series [4]; 7.05 in series [6]; 6.47 in series [7]. The same compound came in with a logD in series [5] of 2.62. For the same compound, in series [8], the solubility kinetic turned out to be 19 µg/mL (≈ 46.9 µM).
As to `COc1ccc(Cl)cc1S(=O)(=O)N1CCOc2ncc(C(=O)Nc3ccc(C(=O)O)cc3)cc21`, the Papp in series [1] came out at 0.74 ×10⁻⁶ cm/s. The pIC50 in series [2] is less than 4.00; in series [3], less than 4.00; in series [4], less than 4.00; in series [6] it was 6.48; in series [7], 6.77. The logD in series [5] came to 0.2. In addition, in series [8], the solubility kinetic turned out to be 47 µg/mL (≈ 93.3 µM).
As to `Nc1ccc(-c2noc([C@H]3CCCCN3C(=O)COc3ccccc3)n2)cn1`, the Papp in series [1] is 4.44 ×10⁻⁶ cm/s. The pIC50 in series [2] was less than 4.00; in series [3] it was 4.52; in series [4], less than 4.00; in series [6] it was 7.46; in series [7] it was 6.66. Further, the logD in series [5] came out at 2.62. Also, in series [8], the solubility kinetic was found to be 81 µg/mL (≈ 213 µM).
As to `O=C(COc1ccccc1)N1CCCC[C@@H]1c1noc(-c2ccc3[nH]cnc3c2)n1`, the Papp in series [1] was 3.03 ×10⁻⁶ cm/s. For the same compound, the pIC50 is 4.48 in series [2]; 4.18 in series [3]; 4.82 in series [4]; 7.53 in series [6]; 6.63 in series [7]. In series [5], this compound displayed a logD of 2.26. Further, the solubility kinetic in series [8] came to 60 µg/mL (≈ 149 µM).
